Patent US5935597A, “Drug delivery devices and methods for treatment of viral and microbial infections and wasting syndromes” (Cryopreservation Technologies CC, priority 1995, dated 1999)

Columns and labels:
human cancer xenografts = settings: intraperitoneal injection, nude mice; cited from earlier work
CD4+ T cell = test: Example 8 pilot study: CD4+ T cell count (Coulter analysis); format: in vivo, human
Description: (§1) A pilot study was conducted to evaluate the efficacy of transdermal DMF in the treatment of patients infected with HIV. Informed consent was obtained from each patient. Seropositive status was verified by Western blot using a commercial kit for detecting antibodies to p24 (Abbott Diagnostics) and the presence of HIV-1 was documented by quantitative PCR using a commercial kit (Roche Amplicor).
(§2) Dermal patches 9 cm in diameter were used within 12 hours of manufacture. […] The patches were visually inspected to verify the absence of leakage and were weighed on an analytical balance to verify less than 10% deviation from a total mass of 8.153 g. The patches were applied to the skin of the forearm and secured with Elastoplast™ bandages. Either one or two patches were used for the initial dose, as determined from the predicted skin transfer rate of 9.4 mg/cm^2 /hr and the patient's body weight.
(§3) A staged dose of DMF was used, with two-hourly blood and urine sampling to determine peak plasma DMF levels. […] Initial evaluation included daily determination of:
c) Coulter analysis of CD4+ and CD8+ counts and CD4/CD8 ratio;

transformed cells = settings: in vitro, certain transformed cells; cited from earlier work
malignant cells = settings: cells treated in vitro, then inoculated into nude mice; cited from earlier work
[1] = Example 8 pilot study: body weight; format: in vivo, human
Description: as §1, §2, §3
a) vital signs and body weight;

[2] = Example 7: plasma/blood DMF level in HIV-1 patients treated with DMF dermal patches; format: in vivo; settings: human, blood, topical or ocular, 14000 mg
Description: Two skin patches were applied to different parts of the patient's body, for example to the forearm. […] The gel served to prevent leakage of liquid DMF from the patches. […] For a patient weighing about 60 kg, an amount of about 14 g over a period of 12 hours is required to produce a level of 100 ppm. Based on studies by Marz and Nohova the surface area required to absorb this amount in about 127,2 cm^2. […] Absorption capability varies from patient to patient depending on factors such as skin-type and skin thickness.
(§4) Each patch was applied for a period of 12 hours, either once per week over a period of 12 weeks, or twice per week over a period of 6 weeks.
Daily full clinical and psychological evaluations were also conducted.

HIV [3] = settings: certain cultured cell lines; cited from earlier work
[4] = Absorption of liquid DMF through human skin; format: in vivo; settings: two patches of diameter 9 cm, 127 cm^2 skin
Description: For transdermal administration of a polar compound, the rate of absorption is determined by the skin of the subject. […] Accordingly, the desired rate of absorption may be achieved by controlling the surface area of the skin exposed to the drug, as by determining the area of each patch and the number of patches applied to the skin.

HIV-1 = test: Example 8 pilot study: HIV-1 load by quantitative PCR (Roche Amplicor); format: in vivo, human
Description: as §1, §2, §3
d) Quantitative estimates of HIV-1 load by PCR (Roche Amplicor) and analysis of antibody to p24 (Abbott);

[5] = Physicochemical properties of DMF; settings: gel patches
[6] = test system: Human Herpes Virus 6 (HHV-6); settings: certain cultured cell lines; cited from earlier work
CD4 T-cell = test: Example 7: CD4 T-cell counts in blood of HIV-1 patients; format: in vivo, human; settings: certain patients; increase from 350; transdermal DMF
Description: as §4
Blood tests in certain patients indicated an increase in CD4 T-cell counts from 350 to 1000, and a rapid reduction of PCR (Polymerase chain reaction) (viral load) of 120,000 to 500/ml within three weeks with as little as three treatments. […] The PCR test conducted was the Roche amplicor HIV monitor. A viral load of <500/ml plasma is considered to be undetectable.
A daily virological serology workout to establish total body virus count and to monitor improvements in the immune status of the patient (CD4+ T-helper cells) and prognostic factors were also conducted. The serology workout was based on p24 antigen and quantitative PCR or, optionally, by other methods. A weekly determination of CD4 counts and […] was also conducted specifically to monitor improvements in the patient's immune status and prognosis. All clinical and laboratory data were fed into a centralized data system to facilitate rapid response to any detrimental change so as to curtail treatment to maximize clinical effect and minimize potential side effects.

[7] = test system: virus particles, e.g. the capsid; reverse transcriptase; protease; test: In vitro tests of DMF on virus particles
HIV [8] = test: Example 8 pilot study: clinical condition and Karnofsky performance scale in HIV infected patients; format: in vivo, human
Description: as §1, §2, §3
b) clinical checklist and Karnofsky score;
(See Karnofsky et al., […], Cancer 1:634-656). […] Additional anti-microbial therapy for secondary infections was rarely needed. […] Clinical improvement correlated well with disease status as assessed by viral load and CD4+ T cell count.

[9] = Example 8 pilot study: adverse effects and liver enzymes; format: in vivo, human
Description: as §1, §2, §3
b) serum urea, creatinine, glucose, sodium, potassium, ALT, AST, alkaline phosphatase and total bilirubin;

With CN(C)C=O [DMF, N,N'-dimethylformamide] as the molecule, how does the “growth of human cancer xenografts” value (human cancer xenografts) read?
The value was “slow the growth of certain human cancer xenografts”.

And the “CD4+ T cell count” value (CD4+ T cell; Patient 1, after 7 weeks, from 39)?
The value was 138 cells/μl.

And the “CD4+ T cell count” value (CD4+ T cell; Patient 2, after 9 weeks, from 460)?
Its value is 720 cells/μl.

And the “CD4+ T cell count” value (CD4+ T cell; Patient 3, after 9 weeks, from 140)?
The value was 640 cells/μl.

And the “CD4+ T cell count” value (CD4+ T cell; Patient 4, after 18 weeks, from 249)?
The value was 450 cells/μl.

What about the “CD4+ cell count” value (CD4+ T cell; Patient 5, after 19 weeks, from 260) of the same molecule?
Its value is 450 cells/μl.

What about the “CD4+ T cell count” value (CD4+ T cell; Patient 6, after 5 weeks, from 354) of the same molecule?
The value was 396 cells/μl.

What about the “CD4+ T cell count” value (CD4+ T cell; Patient 7, after 9 treatments, initial 29) of the same molecule?
The value was 35 cells/μl.

And the “CD4+ T cell count” value (CD4+ T cell; Patient 7, after the first treatment, initial 29)?
The value was 14 cells/μl.

And the “CD4+ T cell count” value (CD4+ T cell; Patient 8, after 8 weeks, from 200)?
Its value is 240 cells/μl.

What about the “increase in CD4+ T cell counts” value (CD4+ T cell; after 42 days, Gompertz curve fit, seven out of eight patients) of the same molecule?
The value was 73.4%.

What about the differentiation (transformed cells) of the same molecule?
The differentiation was “in vitro differentiating agent”.

What about the tumorigenicity (malignant cells) of the same molecule?
Its tumorigenicity is “reduce their tumorigenicity”.

And the body weight ([1]; Patient 1, after 7 weeks, from 74.2)?
Its body weight is 100 kg.

What about the body weight ([1]; Patient 2, after 9 weeks, from 58.4) of the same molecule?
The body weight was 63.0 kg.

And the body weight ([1]; Patient 3, after 10 weeks, from 81.9)?
The body weight was 96.0 kg.

And the body weight ([1]; Patient 4, after 18 weeks, from 81.5)?
Its body weight is 90.4 kg.

And the body weight ([1]; Patient 5, after 19 weeks, from 75.4)?
The body weight was 84.6 kg.

What about the body weight ([1]; Patient 6, after 5 weeks, from 56.0) of the same molecule?
The body weight was 58.0 kg.

And the body weight ([1]; Patient 7, after 9 treatments, from 46.5)?
Its body weight is 49.0 kg.

And the body weight ([1]; Patient 8, after 8 weeks, from 48.1)?
Its body weight is 52.2 kg.

What about the weight gain ([1]; all patients) of the same molecule?
Its weight gain is “All the patients gained weight”.

And the concentration at 12 h [2]?
The concentration at 12 h was 100 µg/mL.

And the “in vitro replication of HIV” value (HIV [3])?
Its value is “inhibit in vitro replication of HIV”.

And the absorption rate [4]?
Its absorption rate is “about 1.2 g of DMF per hour”.

What about the PCR-measured viral load (HIV-1; Patient 1, after 7 weeks, from 222,000) of the same molecule?
Its PCR-measured viral load is 160,000 copies/ml.

What about the PCR-measured viral load (HIV-1; Patient 2, after 9 weeks, from 29,000) of the same molecule?
The PCR-measured viral load was 13,000 copies/ml.

What about the PCR-measured viral load (HIV-1; Patient 3, after 9 weeks, from 250,000) of the same molecule?
The PCR-measured viral load was 50,000 copies/ml.

And the PCR-measured viral load (HIV-1; Patient 4, after 18 weeks, from 13,000)?
Its PCR-measured viral load is 4,000 copies/ml.

What about the PCR-measured viral load (HIV-1; Patient 5, after 19 weeks, from 120,000) of the same molecule?
Its PCR-measured viral load is 24,000 copies/ml.

What about the PCR-measured viral load (HIV-1; Patient 6, after 5 weeks, from 156,000) of the same molecule?
The PCR-measured viral load was 13,000 copies/ml.

And the PCR-measured viral load (HIV-1; Patient 7, after 9 treatments, initial 1,156,000)?
The PCR-measured viral load was 9,000 copies/ml.

And the PCR-measured viral load (HIV-1; Patient 8, after 8 weeks, from 1,200,000)?
The PCR-measured viral load was 250,000 copies/ml.

And the “decline in PCR-measured viral load” value (HIV-1; after 42 days, Gompertz curve fit, five out of eight patients)?
Its value is 88.8%.

What about the evaporation [5] of the same molecule?
The evaporation was “evaporates rapidly”.

And the “in vitro replication of HHV-6” value [6]?
Its value is “inhibit in vitro replication of HIV and Human Herpes Virus 6 (HHV-6)”.

And the “CD4 T-cell count” value (CD4 T-cell)?
Its value is 1000.

What about the “effect on virus particles” value ([7]; in vitro) of the same molecule?
The value was “it appears that the solvent properties of DMF dissolve the virus particles, e.g. the capsid”.

And the “apparent mode of action” value ([7]; it appears as if)?
Its value is “acts as at least one of a reverse transcriptase inhibitor and a protease inhibitor”.

What about the “need for additional anti-microbial therapy for secondary infections” value (HIV [8]; 8 patients) of the same molecule?
Its value is “rarely needed”.

What about the “neurological symptoms and Herpes viral infections” value (HIV [8]; 8 patients) of the same molecule?
The value was “Improvement in neurological symptoms and Herpes viral infections was remarkable”.

What about the “general condition, Karnofsky performance scale” value (HIV [8]; 8 patients, before and after treatment (FIG. 4)) of the same molecule?
The value was “every patient showed improved general condition”.

What about the clinical outcome (HIV [8]; Patient 1, after 7 weeks) of the same molecule?
Its clinical outcome is “appetite had improved, the respiratory difficulties had resolved, the patient appeared clinically well and started exercising again”.

What about the clinical outcome (HIV [8]; Patient 2, after 9 weeks) of the same molecule?
Its clinical outcome is “herpetic sores had resolved, the limb pains had disappeared and the patient appeared clinically well”.

What about the clinical outcome (HIV [8]; Patient 3, after 10 weeks) of the same molecule?
Its clinical outcome is “the patient was clinically well and no longer complained of pain in the limbs”.

What about the clinical outcome (HIV [8]; Patient 4, after 18 weeks) of the same molecule?
The clinical outcome was “The patient appeared clinically well and had no active medical complaints”.

And the clinical outcome (HIV [8]; Patient 5, after 19 weeks)?
Its clinical outcome is “The secondary infections had resolved and the patient appeared clinically well”.

And the clinical outcome (HIV [8]; Patient 6, after 5 weeks)?
Its clinical outcome is “The patient was clinically well”.

And the clinical outcome (HIV [8]; Patient 7, after 9 treatments)?
The clinical outcome was “The patient felt well and had returned to full-time employment”.

And the clinical outcome (HIV [8]; Patient 8, after 8 weeks)?
Its clinical outcome is “the Herpes lesions had entirely resolved”.

What about the clinical improvement (HIV [8]; after 2-3 weeks of treatment) of the same molecule?
Its clinical improvement is “Virtually all patients showed clinical improvement”.

What about the “general fatigue and appetite” value (HIV [8]; within the first 14 days of DMF treatment) of the same molecule?
The value was “marked improvement in general fatigue and in appetite”.

And the “maximum elevation of liver enzymes” value ([9]; four patients with transient elevation)?
Its value is “three”.

What about the “local skin irritation at the area of application” value ([9]; most patients, after removal of the patches) of the same molecule?
The value was “mild local skin irritation”.

And the “appearance of skin at the application site” value ([9]; most patients, probably due to intense hydration under the patch)?
The value was “maculopapular appearance”.

And the nausea ([9]; most patients, usually on day three after treatment)?
Its nausea is “mild transient nausea”.

What about the “patients with transient elevation of liver enzymes” value ([9]; of 8 patients, in most cases returned to pre-treatment levels before next dose) of the same molecule?
Its value is “Four”.

And the blistering ([9]; one case, resolved within 24 hours)?
Its blistering is “slight blistering”.

And the nausea ([9]; one patient)?
The nausea was “moderate transient nausea”.
